“Also recorded” adds a separate entry of the source.
Assays:
cTNT minigene splicing = conditions: DM1 model cell cultures; cited from earlier work
[1] = system: Drosophila bearing i(CUG)60; assay: Treatment of control Drosophila bearing i(CUG)60; conditions: in vivo
Excerpt: FIG. 15A-C. Rescuing disease phenotypes in DM1 Drosophila with ligands 2 and 9. […] The error bars represent the standard deviation of three independent experiments (“(CTG)60” is disclosed as SEQ ID NO: 5).

cells = conditions: cited from earlier work
d(CAG)12 = assay: Isothermal titration calorimetry, d(CAG)12; format: binding; conditions: 25° C., 20 mM MOPS pH 7.0, 300 mM NaCl
Experimental: (§1) To directly assess the DNA-targeting ability of 9, ITC experiments were performed with oligonucleotide analogs of the various trinucleotide repeat sequences (Table 1). […] This supports the idea that 9 inhibits the transcription of CTG^exp by stabilizing its hairpin structure. […] The in vitro transcription experiment using (CTG[…]CAG)74 (SEQ ID NOS 3-4, respectively) and compounds 2, 5-7, and 9 was repeated but with (CUG)16 (SEQ ID NO: 1) added as a competitor.
(§2) Isothermal titration calorimetry (ITC) measurements were performed at 25° C. on a MicroCal VP-ITC (MicroCal, Inc., Northampton, Mass.). A standard experiment consisted of titrating 10 μL of a 500 μM ligand solution from a […] syringe (rotating at 300 rpm) into a sample cell containing 1.42 mL of a 10 μM DNA or RNA solution. An ITC experiment consisted of 28 total injections (first injection was 5 μL, subsequent injections were 10 μL), with a 10 s duration per injection and delay of 380 s between injections. The initial delay prior to the first injection was 300 s. To derive the heat associated with each injection, the area under each isotherm (microcalories per second versus seconds) was determined by integration by the graphing program Origin 7.0 (MicroCal, Inc. Northampton, Mass.). […]

[2] = system: insulin receptor (IR) minigene splicing; conditions: DM1 model cell cultures; cited from earlier work
[3] = system: Drosophila larvae expressing i(CUG)480; assay: Larval crawling assay in DM1 Drosophila; format: in vivo; conditions: 400 μM; untreated i(CUG)480 9 lines/min
Excerpt: To test the abilities of 2 and 9 to improve the locomotor behavior of Drosophila larvae, we used crawling assays (Nichols et al., J. Vis. Exp. 61, e3795 (2012); Lanson et al., Hum. Mol. Genet. 20, 2510-2523 (2011); Batlevi et al., Proc. Natl. Acad. Sci. U.S.A. 107, 742-747 (2010)). […] Those expressing i(CUG)480 (SEQ ID NO: 17) crossed only 9 lines/min (FIG. 9b). […] Importantly, the phenotypic improvement with both compounds was dose-dependent and 9 in all cases provided greater phenotypic reversal than did 2.
Drosophila lines were cultured in standard cornmeal medium supplemented with dry yeasts. Fly lines bearing UAS-(CTG)60 (SEQ ID NO: 5) and UAS-(CTG)480 (SEQ ID NO: 6) were kind gifts of Prof. Rubén Artero Allepuz (Universitat de València, Estudi General, Spain). The gmr-GAL4 and 24B-GAL4 lines were used to drive UAS transgene expression in eye and muscles respectively. Ligands 2 and 9 were dissolved in ddH2O and mixed with fly food. […]
Larval crawling assays were performed as described in Lanson et al (Hum. Mol. Genet. 20, 2510-2523 (2011)). […] The larvae were allowed to acclimate for a period of 1 min, and the total number of gridlines that the posterior end of the larvae passed in 1 min was determined Each set of experiment was repeated independently three times using larvae collected from separate genetic crosses.

MBNL1-CUGexp complex = conditions: previously reported; cited from earlier work
[4] = system: DM1 Drosophila expressing i(CTG)480; assay: External eye assay in DM1 Drosophila; format: in vivo
Experimental: Drosophila lines were cultured in standard cornmeal medium supplemented with dry yeasts. […] The gmr-GAL4 and 24B-GAL4 lines were used to drive UAS transgene expression in eye and muscles respectively. Ligands 2 and 9 were dissolved in ddH2O and mixed with fly food. Genetic crosses were set up in drug-containing fly food at 21.5° C. for external eye assay, and at 25° C. for larval crawling assay and real-time PCR analysis.

(CUG)n = assay: Ligand-RNA binding affinity, (CUG)n
Excerpt: Off target activity is a concern for any therapeutic agent but especially one designed to cleave RNA. To test the selectivity of agents 6 and 9, the screening gel assay described above was applied to other RNA targets, specifically cTNT32, (CCUG)8 (SEQ ID NO: 11), and HIV-1 frameshift site RNA (HIV FS) (FIG. 5a). Both 6 and 9 were quite selective. […] Thus, both similarly adopt stem-loop structures with internal loops within the stem, although obviously of different sequences. Differences between 6 and 9 were observed (FIG. 5) with the former cleaving (CCUG)8 (SEQ ID NO: 11), the toxic RNA involved in myotonic dystrophy type 2 (DM2). […] The ability to process the RNA directly parallels the corresponding ligand-RNA binding affinities. Thus, 1, which contains the acridine-triazine core of agent 6, complexes the (CCUG)6 (SEQ ID NO: 12) and (CUG)n sequences.

[5] = system: SV40 terminator mRNA in i(CUG)60 larvae; assay: SV40 mRNA level in i(CUG)60 larvae (real-time PCR); format: in vivo, Drosophila; conditions: 400 μM
[6] = system: SV40 terminator mRNA in i(CUG)480 larvae; assay: SV40 mRNA level in i(CUG)480 larvae (real-time PCR); format: in vivo, Drosophila; conditions: relative to actin RNA
cTNT32 = assay: Ligand-RNA binding affinity, cTNT32
[7] = cited from earlier work
[8] = system: MBNL1-CUGexp nuclear foci in HeLa cells transfected with GFP-DT960; conditions: DM1 model cell cultures; cited from earlier work
d(CTG)12 = assay: Isothermal titration calorimetry, d(CTG)12; format: binding; conditions: 25° C., 20 mM MOPS pH 7.0, 300 mM NaCl
Experimental: as §1, §2

## N=C(NCCCCNc1nc(N)nc(N)n1)c1ccc(C(=N)NCCCCNc2nc(N)nc(N)n2)cc1 [Ligand 2]
cTNT minigene splicing
  rescue of splicing defect of cTNT minigene (earlier work): partially rescued
[1]
  effects on larval locomotion and eyes of i(CUG)60 Drosophila: no effects
cells
  cell permeability / cell uptake: better cell uptake
d(CAG)12
  binding affinity toward d(CAG)12 by ITC: lack of binding affinity
[2]
  rescue of splicing defect of IR minigene (earlier work): partially rescued
[3]
  average crawling speed: ca. 13 lines/min
MBNL1-CUGexp complex
  KI, inhibition of MBNL binding: low micromolar
[4]; 200 μM
  disease phenotype in DM1 fly eyes at 200 μM: reversed the disease phenotype
[4]; in fly food, 6 d
  neurodegenerative (glossy and rough-eye) phenotype: reversal of the disease phenotype but less effectively; also recorded: improved the neurodegeneration
(CUG)n
  complexation of (CUG)n: complexes
[5]
  SV40 mRNA levels in larvae having i(CUG)60: no change
[6]
  reduction of SV40 mRNA levels in i(CUG)480 larvae: did not
cTNT32
  affinity toward cTNT32: no affinity
[7]
  water solubility in comparison to 1: higher water solubility
[8]
  dissolution of MBNL1-CUGexp nuclear foci (earlier work): dissolved the MBNL1-CUG^exp nuclear foci
d(CTG)12
  binding affinity toward d(CTG)12 by ITC: lack of binding affinity; also recorded: no detectable binding

Source: patent publication US9376421B2, “Compounds and methods for myotonic dystrophy therapy” (The Board of Trustees of the University of Illinois, priority 2014, dated 2016)
